This assay deals with PC3 cells. Put plainly: NAMPT Cell Proliferation Assay (Cell Titer Glo; also performed in the presence of 0.3 mM nicotinamide mononucleotide). The assay is classed as cell-based. The conditions noted are these: Homo sapiens, PC-3, 120 h, 5 days incubation, cell viability by Cell Titer Glo. Put shortly:
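Viability read by Cell Titer Glo after 5-day compound treatment of PC3 cells, dose range 10 μM down to 1×10^−5 μM in 10-fold steps; a second run adds 0.3 mM nicotinamide mononucleotide. Sigmoidal dose-response fitting of percent inhibition gives IC50.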
On the technique in general: ATP-based viability assays read luminescence as a measure of living cells.

pIC50: −log10 of the molar value.

In the case of `Cc1ccc(C(=O)N2CCC(Cc3ccc(NC(=O)C4CN(c5cccnn5)C4)cc3)CC2)cn1` [Example 939, N-[4-({1-[(6-methylpyridin-3-yl)carbonyl]piperidin-4-yl}methyl)phenyl]-1-(pyridazin-3-yl)azetidine-3-carboxamide], the pIC50 is 8.53.

`Cc1ccsc1C(=O)N1CCC(Cc2ccc(NC(=O)C3CN(c4cccnn4)C3)cc2)CC1` [Example 940, N-[4-({1-[(3-methylthiophen-2-yl)carbonyl]piperidin-4-yl}methyl)phenyl]-1-(pyridazin-3-yl)azetidine-3-carboxamide]: the negative logarithm of the IC50 (pIC50) is 8.71.

On to `C#CCCC(=O)N1CCC(Cc2ccc(NC(=O)C3CN(c4cccnn4)C3)cc2)CC1` [Example 941, N-(4-{[1-(pent-4-ynoyl)piperidin-4-yl]methyl}phenyl)-1-(pyridazin-3-yl)azetidine-3-carboxamide], for which the pIC50 is 8.68.

For the compound `O=C(Nc1ccc(CC2CCN(C(=O)c3ccsc3)CC2)cc1)C1CN(c2cccnn2)C1` [Example 942, 1-(pyridazin-3-yl)-N-(4-{[1-(thiophen-3-ylcarbonyl)piperidin-4-yl]methyl}phenyl)azetidine-3-carboxamide], the pIC50 is 8.56.

As for `COCC(=O)N1CCC(Cc2ccc(NC(=O)C3CN(c4cccnn4)C3)cc2)CC1` [Example 943, N-(4-{[1-(methoxyacetyl)piperidin-4-yl]methyl}phenyl)-1-(pyridazin-3-yl)azetidine-3-carboxamide], the negative logarithm of the IC50 (pIC50) was 8.12.

Take `O=C(Nc1ccc(CC2CCN(C(=O)C3CCCO3)CC2)cc1)C1CN(c2cccnn2)C1` (stereo not shown) [Example 944, 1-(pyridazin-3-yl)-N-(4-{[1-(tetrahydrofuran-2-ylcarbonyl)piperidin-4-yl]methyl}phenyl)azetidine-3-carboxamide]: the pIC50 is 8.15.

On to `COCCOCC(=O)N1CCC(Cc2ccc(NC(=O)C3CN(c4cccnn4)C3)cc2)CC1` [Example 945, N-[4-({1-[(2-methoxyethoxy)acetyl]piperidin-4-yl}methyl)phenyl]-1-(pyridazin-3-yl)azetidine-3-carboxamide], for which the pIC50 is 8.35.

With `CCOCC(=O)N1CCC(Cc2ccc(NC(=O)C3CN(c4cccnn4)C3)cc2)CC1` [Example 946, N-(4-{[1-(ethoxyacetyl)piperidin-4-yl]methyl}phenyl)-1-(pyridazin-3-yl)azetidine-3-carboxamide], the negative-log IC50 (pIC50) is 8.54.

`O=C(Nc1ccc(CC2CCN(C(=O)c3cccs3)CC2)cc1)C1CN(c2cccnn2)C1` [Example 947, 1-(pyridazin-3-yl)-N-(4-{[1-(thiophen-2-ylcarbonyl)piperidin-4-yl]methyl}phenyl)azetidine-3-carboxamide]: the pIC50 was 8.59.

As for `CCCCCC(=O)N1CCC(Cc2ccc(NC(=O)C3CN(c4cccnn4)C3)cc2)CC1` [Example 948, N-{4-[(1-hexanoylpiperidin-4-yl)methyl]phenyl}-1-(pyridazin-3-yl)azetidine-3-carboxamide], the negative-log IC50 (pIC50) is 8.65.

Regarding `Cn1cccc1C(=O)N1CCC(Cc2ccc(NC(=O)C3CN(c4cccnn4)C3)cc2)CC1` [Example 949, N-[4-({1-[(1-methyl-1H-pyrrol-2-yl)carbonyl]piperidin-4-yl}methyl)phenyl]-1-(pyridazin-3-yl)azetidine-3-carboxamide], the negative-log IC50 (pIC50) was 8.23.

As to `C=CCC(=O)N1CCC(Cc2ccc(NC(=O)C3CN(c4cccnn4)C3)cc2)CC1` [Example 950, N-(4-{[1-(but-3-enoyl)piperidin-4-yl]methyl}phenyl)-1-(pyridazin-3-yl)azetidine-3-carboxamide], the pIC50 was 8.22.

Consider `O=C(Nc1ccc(CC2CCN(C(=O)c3nccs3)CC2)cc1)C1CN(c2cccnn2)C1` [Example 951, 1-(pyridazin-3-yl)-N-(4-{[1-(1,3-thiazol-2-ylcarbonyl)piperidin-4-yl]methyl}phenyl)azetidine-3-carboxamide], for which the pIC50 is 8.56.

Take `O=C(Nc1ccc(CC2CCN(C(=O)c3ccco3)CC2)cc1)C1CN(c2cccnn2)C1` [Example 952, N-(4-{[1-(furan-2-ylcarbonyl)piperidin-4-yl]methyl}phenyl)-1-(pyridazin-3-yl)azetidine-3-carboxamide]: the negative-log IC50 (pIC50) is 8.66.

Turning to `O=C(Nc1ccc(CC2CCN(C(=O)c3ccno3)CC2)cc1)C1CN(c2cccnn2)C1` [Example 953, N-(4-{[1-(1,2-oxazol-5-ylcarbonyl)piperidin-4-yl]methyl}phenyl)-1-(pyridazin-3-yl)azetidine-3-carboxamide], the pIC50 is 8.48.

On to `O=C(Nc1ccc(CC2CCN(C(=O)c3ccccn3)CC2)cc1)C1CN(c2cccnn2)C1` [Example 954, 1-(pyridazin-3-yl)-N-(4-{[1-(pyridin-2-ylcarbonyl)piperidin-4-yl]methyl}phenyl)azetidine-3-carboxamide], for which the pIC50 was 8.20.

As for `O=C(Nc1ccc(CC2CCN(C(=O)c3ccoc3)CC2)cc1)C1CN(c2cccnn2)C1` [Example 955, N-(4-{[1-(furan-3-ylcarbonyl)piperidin-4-yl]methyl}phenyl)-1-(pyridazin-3-yl)azetidine-3-carboxamide], the pIC50 is 8.22.

Consider `O=C(Nc1ccc(CC2CCN(C(=O)CC3CC3)CC2)cc1)C1CN(c2cccnn2)C1` [Example 956, N-(4-{[1-(cyclopropylacetyl)piperidin-4-yl]methyl}phenyl)-1-(pyridazin-3-yl)azetidine-3-carboxamide], for which the pIC50 was 8.19.

Take `CCC(C)C(=O)N1CCC(Cc2ccc(NC(=O)C3CN(c4cccnn4)C3)cc2)CC1` (stereo not shown) [Example 957, N-(4-{[1-(2-methylbutanoyl)piperidin-4-yl]methyl}phenyl)-1-(pyridazin-3-yl)azetidine-3-carboxamide]: the pIC50 was 8.71.

On to `CCC(=O)N1CCC(Cc2ccc(NC(=O)C3CN(c4cccnn4)C3)cc2)CC1` [Example 958, N-{4-[(1-propanoylpiperidin-4-yl)methyl]phenyl}-1-(pyridazin-3-yl)azetidine-3-carboxamide], for which the pIC50 was 8.58.

For `CCCC(=O)N1CCC(Cc2ccc(NC(=O)C3CN(c4cccnn4)C3)cc2)CC1` [Example 959, N-{4-[(1-butanoylpiperidin-4-yl)methyl]phenyl}-1-(pyridazin-3-yl)azetidine-3-carboxamide], the negative-log IC50 (pIC50) was 8.63.

With `O=C(Nc1ccc(CC2CCN(C(=O)C3CCC3)CC2)cc1)C1CN(c2cccnn2)C1` [Example 960, N-(4-{[1-(cyclobutylcarbonyl)piperidin-4-yl]methyl}phenyl)-1-(pyridazin-3-yl)azetidine-3-carboxamide], the pIC50 was 8.54.

As for `CCCCC(=O)N1CCC(Cc2ccc(NC(=O)C3CN(c4cccnn4)C3)cc2)CC1` [Example 961, N-{4-[(1-pentanoylpiperidin-4-yl)methyl]phenyl}-1-(pyridazin-3-yl)azetidine-3-carboxamide], the pIC50 is 8.25.

Consider `O=C(Nc1ccc(CC2CCN(C(=O)CC3CCCC3)CC2)cc1)C1CN(c2cccnn2)C1` [Example 962, N-(4-{[1-(cyclopentylacetyl)piperidin-4-yl]methyl}phenyl)-1-(pyridazin-3-yl)azetidine-3-carboxamide], for which the negative-log IC50 (pIC50) is 8.62.

As to `Cc1ccccc1C(=O)N1CCC(Cc2ccc(NC(=O)C3CN(c4cccnn4)C3)cc2)CC1` [Example 963, N-(4-{[1-(2-methylbenzoyl)piperidin-4-yl]methyl}phenyl)-1-(pyridazin-3-yl)azetidine-3-carboxamide], the negative logarithm of the IC50 (pIC50) is 8.67.

The term pIC50 denotes the IC50 on a negative log10 scale, so that one unit is a factor of ten.
